For assay [1], the system named is normal sera derived from C57BL/6 femal mice. The experiment in a line: ELISA: reactivity of normal mouse serum with gangliosides. It counts as binding. The following applies: C57BL/6 female mice 9 weeks old, 100 ng ganglioside per well, absorbance at 490 nm, Fig. 1. The procedure: (§1) A serum was obtained by clotting of blood which was collected from a mouse retroorbitally (eyeground method) and removing the clotted blood by centrifugation.
(§2) ELISA assay was conducted by the conventional method.
100 ng of each ganglioside dissolved in ethanol was added to each well of a 96-well microtiter plate and then allowed to stand at 37°C to remove ethanol completely. A blocking solution comprising a phosphate buffer solution (PBS) containing 5% of bovine serum albumin (BSA) or the like was added to the wells and the plate was incubated at 37°C for 2 hours. After the blocking solution was removed, the collected mouse serum was added to each well and the plate was incubated at 37°C for 1 hour. Each well was washed with a phosphate buffer solution containing 1% of BSA. Anti-mouse IgG, IgM and IgA antibodies which were labeled with peroxidase were added to each well and the plate was incubated at 37°C for 1 hour. Each well was washed with a phosphate buffer solution containing 1% of BSA. A substrate solution containing 400 µg/ml of o-phenylenediamine and 0.001% of hydrogen peroxide was added to each well, and the reaction was conducted at room temperature for 15 minutes. 8N sulfuric acid was added to stop the reaction and then the absorbance of the reaction mixture in each well was measured at 490 nm by using a spectrophotometer for a microtiter plate. […]

The test system of assay [2] is sera derived from C57BL/6 female mice (9 weeks old) implanted with B16 melanoma cells. The experiment in a line: ELISA: reactivity of serum of tumor-implanted mice with gangliosides. The following applies: for Reactivity of mouse serum: sera of mice implanted with B16 melanoma cells, 2 weeks after implantation, 100 ng ganglioside per well, absorbance at 490 nm, Fig. 2. The class given is binding, mouse. As to the method: as §1, §2
(§3) 100 ng of each ganglioside dissolved in ethanol was added to each well of a 96-well microtiter plate and then allowed to stand at 37°C to remove ethanol completely. A blocking solution comprising a phosphate buffer solution (PBS) containing 5% of bovine serum albumin (BSA) or the like was added to the wells and the plate was incubated at 37°C for 2 hours. After the blocking solution was removed, the collected mouse serum was added to each well and the plate was incubated at 37°C for 1 hour. Each well was washed with a phosphate buffer solution containing 1% of BSA. Anti-mouse IgG, IgM and IgA antibodies which were labeled with peroxidase were added to each well and the plate was incubated at 37°C for 1 hour. Each well was washed with a phosphate buffer solution containing 1% of BSA. A substrate solution containing 400 µg/ml of o-phenylenediamine and 0.001% of hydrogen peroxide was added to each well, and the reaction was conducted at room temperature for 15 minutes. 8N sulfuric acid was added to stop the reaction and then the absorbance of the reaction mixture in each well was measured at 490 nm by using a spectrophotometer for a microtiter plate.
In Fig. 2, ●, △, ▲ and □ show the data with respect to a serum derived from a tumor the diameter of which is 5 mm or less, 6 mm, 8 mm and 16 mm, respectively.
Values shown in Fig. 1 and Fig. 2 were obtained by subtracting background values and taking the average of three wells.
Values shown in Fig. 3 were obtained by subtracting background values and taking the average of three wells.
(In general: ELISA stands for enzyme-linked immunosorbent assay.)

Assay [3] has as its system reactivity of mouse serum with epiGM₃. The experiment in a line: ELISA: inhibition by acetylneuraminic acid of the reactivity of mouse serum with epiGM₃. The class given is binding. As to conditions: sodium N-acetylneuraminate solutions of various concentration added to serum of tumor-implanted mouse; Fig. 4. The procedure: as §3
Sodium N-acetylneuraminate solutions of various concentration were added to the same sera of mice as those used in the above (2). Values shown in Fig. 4 were obtained by subtracting background values and taking the average of three wells. […]

Data on 3 molecules can be found in EP0443518A2, “Pharmaceutical containing episialo complex carbohydrate” (MECT CORPORATION, priority 1990, dated 1991).

Entries after “also recorded” stand apart in the source; their conditions may differ.

As for `CCCCCCCCCCCCCC=CC(O)C(COC1OC(CO)C(OC2OC(CO)C(O)C(OC3(C(=O)O)CC(O)C(NC(C)=O)C(C(O)C(O)CO)O3)C2O)C(O)C1O)NC(=O)CCCCCCCCCCCCCCCCCCCCCCC` (stereo not shown) [epiGM₃], the “Reactivity of mouse serum” value in assay [1] and in assay [2] was “reacted” throughout. In addition, in assay [2] (sera of mice implanted with B16 melanoma cells versus normal sera, Fig. 2 versus Fig. 1), the “reaction level / reactivity compared with sera derived from normal mice” value is given as “remarkably increased; also recorded: stronger”. For the same molecule, the “reactivity (rank among GM₃, epiGM₃, GM₄, epiGM₄, GM₅ and epiGM₅)” value in assay [2] (serum of the mouse with a 6 mm tumor, diluted 200 times, Fig. 3) was “strongest”.
In the case of `CC(=O)N[C@H]1[C@H]([C@H](O)[C@H](O)CO)OC(O)(C(=O)O)C[C@@H]1O` (stereo partly shown) [N-acetylneuraminic acid], the “Inhibition of the reactivity of mouse serum with epiGM₃” value in assay [3] is given as “inhibited”.
Consider `CCCCCCCCCCCCCC=CC(O)C(COC1OC(CO)C(OC2OC(CO)C(O)C(OC3(C(=O)O)CC(O)C(NC(C)=O)C(C(O)C(O)CO)O3)C2O)C(O)C1O)NC(=O)CCCCCCCCCCCCCCCCCCCCCCC` (stereo not shown) [GM₃, reference compound], for which the “Reactivity of mouse serum” value in assay [1] and in assay [2] was “did not react” throughout.
